Patent US20190085404A1, “METHODS OF IDENTIFYING AND TREATING IMMUNE CHECKPOINT INHIBITOR-RESPONSIVE NEOPLASMS AND CELLS, TRANSGENIC ANIMALS AND KITS FOR USE THEREIN” (The Board of Trustees of the Leland Stanford Junior …, priority 2016, published 2019)

Assays:
[1] = tested on: MYC T-ALL 4188 cells; assay: Chemotherapeutic drug treatment of MYC T-ALL cells, surface protein levels by flow cytometry; type: cell-based, mouse; details: for CD3 expression / CD8 expression / CD25 expression / CD69 expression / CD47 expression / PD-L1 expression: MYC T-ALL 4188 cells, 10 μM; for CD3 expression / CD8 expression / CD25 expression / CD69 expression: flow cytometry; for CD47 expression / PD-L1 expression: flow cytometry MFI; for tumor cell death: MYC T-ALL cells, 10 μM each
Protocol: (§1) Hematopoietic tumor cell lines (MYC T-ALL 4188 cells derived from the transgenic mouse model, human P493-6, human T-ALL Jurkat, and human T-ALL CCRF-CEM) were grown in RPMI 1640 supplemented with 10% FBS, 1% penicillin/streptomycin, 50 μM 2-mercaptoethanol at 37° C. in 5% CO2. Solid human tumor cell lines (H1299, SKMEL28), mouse MYC HCC, and human HEPG2 were grown in DMEM supplemented with 10% FBS and 1% penicillin/streptomycin at 37° C. in 5% CO2. To turn off expression of the MYC transgene, cells were treated with 20 ng/mL Dox. Primary human T-ALL cells were obtained from four deidentified patient samples and were cultured as previously described (Bruserud et al. 2003). Briefly, cells were cultured in StemSpan H3000 (StemCell) supplemented with human stem cell factor (50 ng/ml), human IL-7 (20 ng/ml), human IL-3 (20 ng/ml), and human FLT3 ligand (20 ng/ml) (Peprotech). Human cell lines were purchased from ATCC.
(§2) Tissues were manually dissociated between microscope slides and strained to remove debris. Lysis buffer (0.15 M NH4Cl, 10 mM KHCO3, 0.1 mM EDTA pH 7.3) was used to remove red blood cells. Cells were washed and resuspended in cold flow cytometry buffer (1% FBS, 0.1% sodium azide in PBS). Staining was performed according to manufacturer instructions with the indicated antibodies (eBioscience). Labeled cells were analyzed on a FACSCalibur (Becton Dickinson), and data was analyzed using FlowJo (Treestar). Each plot is representative of three or more animals. Annexin-V and 7-AAD were used according to manufacturer's protocol (eBioscience).
FIG. 7A: CD47 and PD-L1 protein levels in MYC T-ALL 4188 cells treated with prednisone, cytoxan, cisplatin, or vincristine (10 μM each) were quantified by flow cytometry MFI. Means±SEM are shown, n=3. FIG. 7B-7E: CD3, CD8, CD25, and CD69 protein levels in MYC T-ALL 4188 cells treated as in FIG. 7A were quantified by flow cytometry. Means±SEM are shown (n=3).

[2] = tested on: cells derived from mouse MYC-driven HCC; assay: CD47 and PD-L1 protein levels in mouse MYC-driven HCC cells after chemotherapy treatment; type: cell-based; details: flow cytometry MFI
Protocol: as §1, with “Briefly, cells were cultured in StemSpan H3000 (StemCell) supplemented with human stem cell factor (50 ng/ml), human IL-7 (20 ng/ml), human IL-3 (20 ng/ml), and human FLT3 ligand (20 ng/ml) (Peprotech). Human cell lines were purchased from ATCC.” left out
(§3) Tissues were manually dissociated between microscope slides and strained to remove debris. […] Labeled cells were analyzed on a FACSCalibur (Becton Dickinson), and data was analyzed using FlowJo (Treestar). […]
FIG. 8A: CD47 and PD-L1 protein levels in cells derived from mouse MYC-driven HCC, following MYC inactivation or chemotherapy treatment, were quantified by flow cytometry MFI (n=3). FIG. 8B: CD47 and PD-L1 mRNA levels were quantified by qPCR and protein levels were quantified by flow cytometry in primary tumors from mouse MYC-driven HCC, following MYC inactivation (n=3 tumors per condition). […]

[3] = tested on: primary human T-ALL cells; assay: CD47, PD-L1, CD8 and MYC expression in primary human T-ALL samples; type: cell-based; details: 48 h; for CD8 expression / CD47 cell surface expression / PD-L1 cell surface expression: four primary human T-ALL samples, flow cytometry MFI, 10 μM JQ1, 10 μM cisplatin or shRNA
Protocol: as §1
(§4) shRNA-mediated knockdowns were performed with the pLKO.1 lentiviral vector containing either control, CD47, or PD-L1-specific shRNA. shRNA-mediated knockdown of human MYC was performed with the pLKO.1 lentiviral vector containing a scrambled control or MYC shRNA (Sigma). PD-L1 shRNA on a pLKO.1-puro backbone was purchased from Sigma and CD47 shRNA (Sigma) was cloned into a pLKO.1-Hygro backbone (Addgene). The plasmids were transfected into packaging cells and virus-containing medium supernatants were used to infect tumor cells using polybrene methodology. For conditional knockdowns, stable cell lines were generated and the time course following MYC inactivation with 20 ng/mL Dox is indicated. For stable knockdowns, the time course is indicated as the time post-viral infection.
(§5) All tissues and cells were flash-frozen in liquid nitrogen and stored at −80° C. until RNA preparation. RNA was isolated using the TRIzol Reagent (Invitrogen) according to manufacturer instructions. cDNA was synthesized using SuperScriptIII (ThermoFisher). qPCR was performed using specific primers (Table 51) and the SYBR Green qPCR Kit (Roche) in an Applied Biosystems Real-Time PCR System (Life Technologies) with QuantStudio12K Flex Software. Data was analyzed using the cycle threshold method (normalized to UBC). A minimum of 3 biological and 3 technical replicates were used for all qPCR experiments.
as §2
FIG. 6A-6B: MYC mRNA levels before and after treatment with shRNA against MYC or treatment with JQ1. MYC mRNA was measured by qPCR in human T-ALL cell lines (A, n=3) and primary human T-ALL (B, n=4) cells following MYC inhibition by shRNA or JQ1 treatment after the indicated number of hours (0-48 h for human T-ALL cell lines, 48 h for primary T-ALL).
FIG. 9A: CD47 and PD-L1 protein levels in primary human T-ALL tumor samples were quantified by flow cytometry, following 48 h treatment with control scramble shRNA or MYC-targeting shRNA. FIG. 9B: CD47, PD-L1, or CD8 protein levels in primary human T-ALL tumor samples were quantified by flow cytometry MFI, following 48 h treatment with control scramble shRNA or MYC-targeting shRNA, or treatment with 10 μM JQ1 or 10 μM cisplatin (n=4 distinct patient samples). Means±SEM are shown.

[4] = tested on: human T-ALL cell line CCRF-CEM; assay: CD47, PD-L1 and MYC expression in CCRF-CEM cells after MYC inhibition; type: cell-based
Protocol: as §1, with “ATCC. […]” for “ATCC.”
(§6) All tissues and cells were flash-frozen in liquid nitrogen and stored at −80° C. until RNA preparation. […] Data was analyzed using the cycle threshold method (normalized to UBC). […]
as §3
(§7) FIG. 1A: Flow cytometry median fluorescence intensity (MFI) was used to determine the relative cell surface expression of CD47, PD-L1, and other immune proteins following MYC inactivation in MYC T-ALL 4188 cells in vitro (n=3). FIG. 1B: Tumors were harvested from primary MYC-driven lymphomas 0 or 4 days following MYC inactivation. mRNA and protein levels were quantified by qPCR and flow cytometry MFI (n=3 tumors per condition). […] FIG. 1C: CD47 and PD-L1 protein levels in Jurkat and CCRF-CEM cells were quantified by flow cytometry MFI following MYC inhibition by conditional shRNA knockdown or 10 μM JQ1 treatment (n=3 biological replicates). […]

[5] = tested on: human T-ALL cell line Jurkat; assay: CD47, PD-L1 and MYC expression in Jurkat cells after MYC inhibition; type: cell-based
Protocol: as §1, with “ATCC. […]” for “ATCC.”
as §6, §3, §7

[6] = tested on: human melanoma cell line SKMEL28; assay: CD47 and PD-L1 mRNA and protein in SKMEL28 cells after MYC inactivation; type: cell-based; details: 48 hours, 10 μM JQ1 or MYC shRNA knockdown
Protocol: as §1, §4, §5, §3
(§8) FIG. 2A and FIG. 2B: The mRNA and protein levels of MYC, CD47, and PD-L1 in human melanoma SKMEL28 and human NSCLC H1299 cells were determined by qPCR and flow cytometry MFI, respectively, 48 hours after MYC inactivation in vitro. […]

[7] = tested on: human non-small cell lung cancer (NSCLC) cell line H1299; assay: CD47 and PD-L1 mRNA and protein in H1299 cells after MYC inactivation; type: cell-based; details: 48 hours, 10 μM JQ1 or MYC shRNA knockdown
Protocol: as §1, §4, §5, §3, §8

[8] = CCRF-CEM, protein by flow cytometry MFI, conditional shRNA knockdown or 10 μM JQ1
[9] = human T-ALL cell lines, qPCR, 0-48 h
[10] = Jurkat, protein by flow cytometry MFI, conditional shRNA knockdown or 10 μM JQ1

| Structure (SMILES) | CD3 expression [1] | CD8 expression [1] | CD25 expression [1] | CD69 expression [1] | CD47 expression [1] | PD-L1 expression [1] | tumor cell death [1] | CD8 expression [3] | CD47 cell surface expression [3] | PD-L1 cell surface expression [3] | other results |
| --- | --- | --- | --- | --- | --- | --- | --- | --- | --- | --- | --- |
| O=P1(N(CCCl)CCCl)NCCCO1 (stereo not drawn) [cytoxan] | no effect | no effect | no effect | no effect | either unaffected or showed increased expression | either unaffected or showed increased expression | tumor cell death |  |  |  |  |
| N.N.[Cl][Pt][Cl] [cisplatin] | no effect | no effect | no effect | no effect | either unaffected or showed increased expression | either unaffected or showed increased expression | tumor cell death | unaffected | increased | increased | expression of CD47 protein [2]: unaffected; expression of PD-L1 protein [2]: unaffected |
| CC[C@]1(O)C[C@H]2CN(CCc3c([nH]c4ccccc34)[C@@](C(=O)OC)(c3cc4c(cc3OC)N(C=O)[C@H]3[C@@](O)(C(=O)OC)[C@H](OC(C)=O)[C@]5(CC)C=CCN6CC[C@]43[C@@H]65)C2)C1 [vincristine] | no effect | no effect | no effect | no effect | either unaffected or showed increased expression | either unaffected or showed increased expression | tumor cell death |  |  |  |  |
| Cc1sc2c(c1C)C(c1ccc(Cl)cc1)=N[C@@H](CC(=O)OC(C)(C)C)c1nnc(C)n1-2 [JQ1] |  |  |  |  |  |  |  | unaffected | reduced | reduced | expression of CD47 [4, 8]: reduced; expression of PD-L1 [4, 8]: reduced; expression of MYC mRNA [4, 9]: reduced; expression of CD47 [5, 10]: reduced; expression of PD-L1 [5, 10]: reduced; expression of MYC mRNA [5, 9]: reduced; expression of CD47 protein ([6]; flow cytometry MFI): reduced; expression of PD-L1 protein ([6]; flow cytometry MFI): reduced; expression of CD47 mRNA ([6]; qPCR): reduced; expression of PD-L1 mRNA ([6]; qPCR): reduced; expression of CD47 protein ([7]; flow cytometry MFI): reduced; expression of PD-L1 protein ([7]; flow cytometry MFI): reduced; expression of CD47 mRNA ([7]; qPCR): reduced; expression of PD-L1 mRNA ([7]; qPCR): reduced; expression of MYC mRNA ([3]; primary human T-ALL cells, qPCR): reduced |
| C[C@]12C=CC(=O)C=C1CC[C@@H]1[C@@H]2C(=O)C[C@@]2(C)[C@H]1CC[C@]2(O)C(=O)CO [prednisone] | no effect | no effect | no effect | no effect | either unaffected or showed increased expression | either unaffected or showed increased expression | tumor cell death |  |  |  |  |
